In US20080139574A1, “Novel quinoline derivatives” (CADILA HEALTHCARE LIMITED, priority 2006, published 2008):
≈ marks a conversion by molar mass, not a printed value.

What was measured:
[1] = system: Bacillus pumilis ATCC 14884; test: In vitro MIC, broth micro dilution; format: cell-based; conditions: ATCC14884
Description: (§1) The in vitro (MIC) antibacterial activity of the compounds against susceptible Gram-positive, multidrug resistant Gram-positive and Gram-negative was tested as growth inhibition with the use of broth micro dilution method according to the guidelines of Clinical and Laboratory Standards Institute (formerly National Committee for Clinical Laboratory Standards). Compounds were dissolved in DMSO and water was added to get stock solution in 80% DMSO. The working solution was prepared by diluting the stock solution 1:10 times in 4-8% DMSO in water or medium, and the dissolved compounds were evaluated in the concentrations of 0.125, 0.25, 0.5, 1, 2, 4, 8, and 16 μg/mL and the concentration was finally expressed in μM.

[2] = system: Staphylococcus aureus ATCC 9144; test: In vitro MIC, broth micro dilution; format: cell-based; conditions: ATCC9144
Description: as §1

[3] = system: Enterococcus faecalis ATCC 14506; test: In vitro MIC, broth micro dilution; format: cell-based; conditions: ATCC14506
Description: as §1

[4] = system: Klebsiella pneumoniae ATCC 10031; test: In vitro MIC, broth micro dilution; format: cell-based; conditions: ATCC10031
Description: as §1

[5] = system: Staphylococcus aureus ATCC 25923; test: In vitro MIC, broth micro dilution; format: cell-based; conditions: ATCC25923
Description: as §1

[6] = system: Staphylococcus epidermidis ATCC 155; test: In vitro MIC, broth micro dilution; format: cell-based; conditions: ATCC155
Description: as §1

[7] = system: Enterococcus faecalis ATCC 700802; test: In vitro MIC, broth micro dilution; format: cell-based; conditions: ATCC700802
Description: as §1

[8] = system: Pseudomonas aeruginosa ATCC 27853; test: In vitro MIC, broth micro dilution; format: cell-based; conditions: ATCC27853
Description: as §1

[9] = system: Bacillus cereus ATCC 11778; test: In vitro MIC, broth micro dilution; format: cell-based; conditions: ATCC11778
Description: as §1

[10] = system: Streptococcus pneumoniae ATCC 700904; test: In vitro MIC, broth micro dilution; format: cell-based; conditions: ATCC700904
Description: as §1

[11] = system: Staphylococcus aureus ATCC 14154; test: In vitro MIC, broth micro dilution; format: cell-based; conditions: ATCC14154
Description: as §1

[12] = system: Enterococcus faecium ATCC 700221; test: In vitro MIC, broth micro dilution; format: cell-based; conditions: ATCC700221
Description: as §1

ATCC 700603 = test: In vitro MIC, broth micro dilution; format: cell-based; conditions: ATCC700603; Staphylococcus pyogens ATCC 700603
Description: as §1

[13] = system: Enterococcus faecium ATCC 51559; test: In vitro MIC, broth micro dilution; format: cell-based; conditions: ATCC51559
Description: as §1

[14] = system: Klebsiella pneumoniae ATCC 700571; test: In vitro MIC, broth micro dilution; format: cell-based; conditions: ATCC700571
Description: as §1

[15] = system: Enterococcus faecalis ATCC 35550; test: In vitro MIC, broth micro dilution; format: cell-based; conditions: ATCC35550
Description: as §1

[16] = system: Staphylococcus aureus ATCC 700699; test: In vitro MIC, broth micro dilution; format: cell-based; conditions: ATCC700699
Description: as §1

[17] = system: Staphylococcus aureus ATCC 29213; test: In vitro MIC, broth micro dilution; format: cell-based; conditions: ATCC29213
Description: as §1

[18] = system: Streptococcus pyogens ATCC 14289; test: In vitro MIC, broth micro dilution; format: cell-based; conditions: ATCC14289
Description: as §1

in vivo = conditions: male, Sprague-Dawley, rat, po, 30 mg/kg

| Compound | MIC [1] [µM] | MIC [2] [µM] | MIC [3] [µM] | MIC [4] [µM] | MIC [5] [µM] | MIC [6] [µM] | MIC [7] [µM] | MIC [8] [µM] | MIC [9] [µM] | MIC [10] [µM] | MIC [11] [µM] | MIC [12] [µM] | MIC (ATCC 700603) [µM] | MIC [13] [µM] | MIC [14] [µM] | MIC [15] [µM] | MIC [16] [µM] | MIC [17] [µM] | MIC [18] [µM] | AUC (in vivo) [ng·h/mL] | further results |
| --- | --- | --- | --- | --- | --- | --- | --- | --- | --- | --- | --- | --- | --- | --- | --- | --- | --- | --- | --- | --- | --- |
| COc1ccc2c(c1)CCC(CN1CCN(c3cc4c(cc3F)c(=O)c(C(=O)O)cn4C3CC3)CC1)C2=O (centres unmarked) [Compound 1, 1-Cyclopropyl-6-fluoro-7-[4-(6-methoxy-1-oxo-1,2,3,4-tetrahydro-naphthalen-2-ylmethyl)-piperazin-1-yl]-4-oxo-1,4-dihydro-quinoline-3-carboxylic acid] | 1.56 (≈ 0.812 µg/mL) | 1.56 (≈ 0.812 µg/mL) | 12.5 (≈ 6.49 µg/mL) | ≤ 0.391 | 1.56 (≈ 0.812 µg/mL) | 0.781 (≈ 0.406 µg/mL) | 12.5 (≈ 6.49 µg/mL) | 3.12 (≈ 1.62 µg/mL) | 3.12 (≈ 1.62 µg/mL) | 3.12 (≈ 1.62 µg/mL) | 1.56 (≈ 0.812 µg/mL) | 25 (≈ 13 µg/mL) | 12.5 (≈ 6.49 µg/mL) | > 50 | 6.25 (≈ 3.25 µg/mL) | 3.12 (≈ 1.62 µg/mL) | > 50 | 3.12 (≈ 1.62 µg/mL) | 1.56 (≈ 0.812 µg/mL) | 85800 ± 39900 | Cmax (in vivo): 10600 ± 2610 ng/mL; Tmax (in vivo): 4 h; half-life (in vivo): 9.55 ± 2.83 h |
| O=C(O)c1cn(C2CC2)c2cc(N3CCN(CC4CCOc5cc(Cl)ccc5C4=O)CC3)c(F)cc2c1=O (centres unmarked) [Compound 6, 7-[4-(8-Chloro-5-oxo-2,3,4,5-tetrahydro-benzo[b]oxepin-4-ylmethyl)-piperazin-1-yl]-1-cyclopropyl-6-fluoro-4-oxo-1,4-dihydro-quinoline-3-carboxylic acid] | 0.781 (≈ 0.422 µg/mL) | 0.781 (≈ 0.422 µg/mL) | 6.25 (≈ 3.37 µg/mL) | ≤ 0.391 | 0.781 (≈ 0.422 µg/mL) | ≤ 0.391 | 6.25 (≈ 3.37 µg/mL) | 0.781 (≈ 0.422 µg/mL) | 1.56 (≈ 0.844 µg/mL) | 3.12 (≈ 1.69 µg/mL) | 1.56 (≈ 0.844 µg/mL) | 50 (≈ 27 µg/mL) | 12.5 (≈ 6.75 µg/mL) | 50 (≈ 27 µg/mL) | 1.56 (≈ 0.844 µg/mL) | 6.25 (≈ 3.37 µg/mL) | 25 (≈ 13.5 µg/mL) | 1.56 (≈ 0.844 µg/mL) | 0.781 (≈ 0.422 µg/mL) | 7400 ± 1780 | Cmax (in vivo): 2360 ± 1070 ng/mL; Tmax (in vivo): 1.33 ± 0.53 h; half-life (in vivo): 1.66 ± 0.73 h |
| CCn1cc(C(=O)O)c(=O)c2cc(F)c(N3CCNCC3)cc21 [Norfloxacin, reference compound] | 6.25 (≈ 2 µg/mL) | 1.56 (≈ 0.499 µg/mL) | 25 (≈ 7.98 µg/mL) | ≤ 0.391 | 3.12 (≈ 0.998 µg/mL) | 0.781 (≈ 0.249 µg/mL) | 25 (≈ 7.98 µg/mL) | 3.12 (≈ 0.998 µg/mL) | 3.12 (≈ 0.998 µg/mL) | 1.56 (≈ 0.499 µg/mL) | 3.12 (≈ 0.998 µg/mL) | > 50 | > 50 | > 50 | 6.25 (≈ 2 µg/mL) | 6.25 (≈ 2 µg/mL) | > 50 | 3.12 (≈ 0.998 µg/mL) | 3.12 (≈ 0.998 µg/mL) |  |  |
